Laboratory results reported in paper PMC8235661, “Photoelectric Dye, NK-5962, as a Potential Drug for Preventing Retinal Neurons from Apoptosis: Pharmacokinetic Studies Based on Review of the Evidence” (Life, 2021).
Where two headings read alike, the source gives them in different places.

What was measured:
[1] = test system: chick retinal cells including neurons and glial cells; experiment: Cell viability assay using mixed culture of chick retinal neurons and glial cells (LIVE/DEAD stain); type: cell-based; conditions: for percentage of dead cells in the exposure to light (mean): 2.78% in the absence of NK-5962
Source text: Egg shells (Fukuda Breeders Co., Ltd., Okayama, Japan) were disinfected with 70% alcohol and 12-day-old chick embryos were removed from a small opening. The eyes at this embryonic stage were used because the outer segments of the retinal photoreceptor cells had not yet been developed. The eyes were enucleated and cut at the midperiphery of the globe and the anterior halves were removed together with the vitreous. The neurosensory retina at this embryonic stage could easily be peeled off from the eye cup. After peeling, retinal tissues were incubated in 0.25% trypsin, 1 mM ethylenediaminetetraacetic acid (EDTA) in Ca^2+, and Mg^2+-free Hanks’ balanced salt solution (HBSS) to disperse retinal cells. After centrifugation, the retinal cells were washed with Dulbecco’s modified Eagle’s medium (DMEM) and seeded at a concentration of 3.5 × 10^5 cell/mL in poly-L-lysine-coated wells of a 96-well multidish containing DMEM supplemented with 10% fetal bovine serum (FBS), 100 mg/L streptomycin, and 100 mg/L ampicillin.
In order to determine the types of cells, either neurons or glial cells derived from neurosensory retinal tissues, retinal cells following 2-day culture were stained for neuron-specific enolase and glial fibrillary acidic protein by immunocytochemistry. The majority of retinal cells at day 2 of the culture were neurons mixed with a small number of glial cells (Figure 2).
Retinal cells at a concentration of 3.5 × 10^5 cell/mL in 220 μL of DMEM with 10% FBS were cultured together with 20 μL of varying concentrations of NK-5962 for 2 days either under protection from light or under light from a fluorescent lamp at 230 lux for 9 h daily. The final concentrations of NK-5962 in the solution were 1.6 × 10^−5, 1.6 × 10^−6, and 1.6 × 10^−7 M. Cells were then incubated for 15 min with SYTO 10 Green fluorescent nucleic acid stain and DEAD Red nucleic acid stain (LIVE/DEAD Reduced Biohazard Viability/Cytotoxicity Kit: Molecular Probes; Thermo Fisher Scientific, Waltham, MA, USA) in HEPES-buffered saline. After being fixed with 4% glutaraldehyde in HEPES-buffered saline, live cells and dead cells were visualized with a 100 W mercury lamp as a light source under a fluorescence inverted microscope through a set of FITC and PI filters (Olympus IX71; Olympus Life Sciences, Tokyo, Japan). Images in the center of each well were captured with a CCD camera and stored in a computer. Three wells were assigned to each condition of incubation in one series of experiments and the entire procedure was repeated three times on different days to obtain nine results for each condition. Green live cells (stained with SYTO 10 Green) and orange dead cells (stained with both SYTO10 Green and DEAD RED) in the images for each well were counted and the percentage of dead cells to the total cells was analyzed statistically (Figure 2).

[2] = test system: apoptotic cells in the retinal outer nuclear layer of RCS rats; experiment: Intravitreous injection of NK-5962 in RCS rats, TUNEL assay of retinal outer nuclear layer; type: in vivo, rat
Protocol: NK-5962 powder was dissolved in distilled deionized water at a concentration of 8.2 μg/mL (16 μM). This original stock solution of NK-5962 (8.2 μg/mL) was diluted with saline (0.9% sodium chloride) to make a series of 10-fold dilutions from 8.2 × 10^−4 to 8.2 μg/mL. Twenty male pink-eyed RCS rats (RCS/Jcl-rdy/rdy, p-, CLEA Japan, Inc., Tokyo, Japan) at the age of 4 weeks were assigned to 5 groups (n = 4) that received NK-5962 at 5 different concentrations. Intravitreous injection was performed twice at the age of 4 and 5 weeks (Figure 4A). This study was approved by the Animal Care and Use Committee at the Okayama University (Identifier OKU-2013441) and based on the Animal Welfare and Management Act in Japan.
RCS rats were anesthetized by intraperitoneal injection of ketamine (87 mg/kg body weight, Daiichi Sankyo, Tokyo, Japan) and xylasine (13 mg/kg, Bayer Japan, Osaka, Japan). Mydriasis was induced by 0.5% tropicamide and 0.5% phenylephrine instillation (Santen Pharmaceutical, Osaka, Japan) and corneal anesthesia was further obtained with 0.4% oxybuprokaine instillation (Santen Pharmaceutical, Osaka, Japan). Under a dissecting microscope, 3 μL of NK-5962 solution and saline (0.9% sodium chloride) was injected into the vitreous of the left eye and the right eye, respectively, with a 30-gauge needle attached to a Hamilton syringe (50 μL 1705 LT SYR; Hamilton Company, Reno, NV, USA). The needle was inserted almost at a perpendicular angle and at 1mm from the corneoscleral limbus to avoid the damage to the lens. Antibiotic (0.5% moxifloxacin, Novartis Pharma Japan, Tokyo, Japan) eye drops were instilled for both eyes. Each rat was housed in a standard rat cage in the 12 h light and dark cycle at the Animal Center of Okayama University. In a separate experiment, 3 rats were placed and maintained in constant darkness after intravitreous injection of NK-5962 at a concentration of 8.2 μg/mL (16 μM).
Apoptotic cells were detected by terminal deoxynucleotidyl transferase-mediated fluorescein-conjugated dUTP nick-end-labeling (TUNEL) assay, according to the manufacturer’s instructions (In Situ Cell Death Detection Kit, Roche Diagnostics, Mannheim, Germany). The images at the constant exposure time were captured by an Olympus FSX100 microscope that was equipped with the fluorescent filter cube U-MWIBA3. Five photographs in each of 5 retinal vertical sections per eye were taken and an entire frame (220 × 165 μm) of each photograph with ×40 NA0.95 objective lens was used for measurements. The number of TUNEL-positive cells in the outer nuclear layer at each retinal site (a, b, c and d, Figure 4B) was counted in each frame of photographs. The number of TUNEL-positive cells per 1,000 μm^2 of the outer nuclear layer was calculated for comparison by two-factor ANOVA. […]

[3] = Acute systemic toxicity test; conditions: in vivo
[4] = Repeated-dose systemic toxicity test; conditions: in vivo
[5] = test system: chick retinal pigment epithelial cells; design: method as in PMID 18414992; conditions: 6.6 × 10^−5, 6.6 × 10^−6 and 6.6 × 10^−7 M, 4 h, dark or light 320 lux; cited from earlier work
[6] = 0.16 μM NK-5962, exposure to light
[7] = 1.6 μM NK-5962, exposure to light
[8] = 16 μM NK-5962, exposure to light

For `CCCCN(CCCC)c1ccc(C=Cc2sc3ccccc3[n+]2CC(=O)O)cc1.[Br-]` [NK-5962, 2-[2-[4-(dibutylamino)phenyl]ethenyl]-3-carboxymethylbenzothiazolium bromide], the “rate of the percentage of dead cells compared with the absence of NK-5962” value (from here on “rate of the percentage of dead cells”) [1, 6] was 105%, the “percentage of dead cells in the exposure to light (mean)” value (shortened to “percentage of dead cells … (mean)”) [1, 6] was 2.93% and the “rate of the percentage of dead cells” value [1, 7] was 68%. The “percentage of dead cells … (mean)” value [1, 7] was 1.89%, the “rate of the percentage of dead cells” value [1, 8] was 42% and the “percentage of dead cells … (mean)” value [1, 8] was 1.17%. The IC50 ([1]; Gallus gallus, corrected with non-binding ratio 0.34 in 10% FBS, read-out: IC50 based on free form of NK-5962) was 1.7 µM, the “percent ratio of the number of TUNEL-positive cells versus saline” value ([2]; 1.6 μM NK-5962 intravitreous) was 61% and the “percent ratio of the number of TUNEL-positive cells versus saline” value ([2]; 16 μM NK-5962 intravitreous) was 56%. The EC50 ([2]; 16 μM × 3 μL / (3 + 13) μL, rat vitreous cavity estimated 13 μL, read-out: in vivo EC50 as intravitreous concentration) was 3 µM, the EC50 ([2]; Rattus norvegicus, 3 μL intravitreous injection, read-out: EC50 (50% effective concentration), concentration of injected solution) was about 16 µM and the “acute systemic toxicity test” value [3] was “not toxic”. For the same compound, the “repeated-dose systemic toxicity test” value [4] was “not toxic” and the percent cytotoxicity value [5] was “negative in all groups”.
